The source of these data is BindingDB's records for doi:10.1016/s0960-894x(01)00185-8 (Dupont Pharmaceuticals, 2001).

Molecules are shown by their SMILES. pIC50: −log10 of the molar value.

In assay [1] the target is Cyclin-dependent kinase 2/G1/S-specific cyclin-E1 (Homo sapiens, UniProt P24941). The assay can be described thus: Kinase Inhibition Assay.
Procedure: (§1) The enzyme was assayed with substrate GST-Rb in the presence of 50 mM ATP/[gamma-32P] ATP, and capturing the 32-P labeled reaction products on GSH-Sepharose beads. […] Use of 32P-labeled ATP allows this transfer to be monitored by scintillation counting.
In assay [2] the target is Cyclin-dependent kinase 4/G1/S-specific cyclin-D1 (Homo sapiens, UniProt P11802). The assay can be described thus: Kinase Inhibition Assay.
Sequence of Cyclin-dependent kinase 4/G1/S-specific cyclin-D1 (P11802 whole entry): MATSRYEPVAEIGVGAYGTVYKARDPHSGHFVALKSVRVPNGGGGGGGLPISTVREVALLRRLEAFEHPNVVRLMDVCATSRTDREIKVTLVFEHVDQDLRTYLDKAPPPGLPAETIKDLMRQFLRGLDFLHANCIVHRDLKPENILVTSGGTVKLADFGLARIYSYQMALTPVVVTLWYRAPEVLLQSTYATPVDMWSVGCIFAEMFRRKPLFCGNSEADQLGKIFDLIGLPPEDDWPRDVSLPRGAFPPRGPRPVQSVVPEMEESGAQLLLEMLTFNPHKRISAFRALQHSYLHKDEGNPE
Sequence of Cyclin-dependent kinase 4/G1/S-specific cyclin-D1 (P24385 whole entry, further chain): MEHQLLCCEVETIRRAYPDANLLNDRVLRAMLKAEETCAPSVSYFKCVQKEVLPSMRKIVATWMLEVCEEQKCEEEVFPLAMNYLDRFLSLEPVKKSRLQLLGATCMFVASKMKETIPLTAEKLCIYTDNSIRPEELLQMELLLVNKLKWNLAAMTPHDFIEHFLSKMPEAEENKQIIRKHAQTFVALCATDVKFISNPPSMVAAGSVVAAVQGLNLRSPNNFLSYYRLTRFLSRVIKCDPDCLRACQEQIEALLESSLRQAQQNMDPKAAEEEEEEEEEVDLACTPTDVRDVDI
Procedure: as §1

Usually pIC50 stands for the negative decadic logarithm of the IC50, by convention in mol/L. A high value points to a low IC50. In the case of `CC(C)(C)Nc1nc(C(F)(F)F)nc2ccc(-c3cccc(-c4cccnc4)c3)cc12` [N-tert-butyl-6-[3-(pyridin-3-yl)phenyl]-2-(trifluoromethyl)quinazolin-4-amine], the pIC50 in assay [1] is 5.92; in assay [2], 5.08.
